Key:
[1] = target: rhACE2 (Homo sapiens, UniProt Q9BYF1); type: binding
[2] = system: spike protein and ACE2 interaction; details: cited from earlier work

Chain of rhACE2 (Q9BYF1 18-740): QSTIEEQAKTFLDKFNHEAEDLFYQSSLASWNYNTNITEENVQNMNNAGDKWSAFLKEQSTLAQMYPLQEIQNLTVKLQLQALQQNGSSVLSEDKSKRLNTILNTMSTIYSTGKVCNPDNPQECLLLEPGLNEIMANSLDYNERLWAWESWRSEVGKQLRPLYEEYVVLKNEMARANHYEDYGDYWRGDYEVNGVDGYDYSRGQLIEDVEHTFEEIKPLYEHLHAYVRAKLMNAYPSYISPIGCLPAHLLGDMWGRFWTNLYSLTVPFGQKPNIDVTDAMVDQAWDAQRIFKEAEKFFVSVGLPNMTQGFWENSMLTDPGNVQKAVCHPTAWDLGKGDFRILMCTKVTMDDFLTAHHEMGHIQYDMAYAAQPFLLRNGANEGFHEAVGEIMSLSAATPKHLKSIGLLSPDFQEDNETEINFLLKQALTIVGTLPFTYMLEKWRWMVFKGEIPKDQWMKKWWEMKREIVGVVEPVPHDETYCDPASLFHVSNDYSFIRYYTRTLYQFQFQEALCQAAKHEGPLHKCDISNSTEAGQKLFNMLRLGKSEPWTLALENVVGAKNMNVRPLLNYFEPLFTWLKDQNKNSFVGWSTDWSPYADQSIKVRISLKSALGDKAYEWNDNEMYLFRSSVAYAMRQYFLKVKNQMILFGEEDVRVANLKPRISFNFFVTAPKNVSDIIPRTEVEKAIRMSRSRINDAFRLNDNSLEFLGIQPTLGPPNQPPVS

| Substance | SPR binding to ACE2 (in words) [1] | also measured |
| --- | --- | --- |
| ALNSYW [RBD-14a] | – | SPR response [1]: 5 RU |
| FYTTTGIGYQPY [SP-8] | – | inhibition of spike protein and ACE2 interaction (in words) [2]: inhibitory activity |
| IGYQPY [RBD-15c] | no interaction observable | – |
| NYNYKY [RBD-11a] | – | SPR response signal [1]: 5 RU |
| SYWPLN [RBD-14b] | only weak interaction | SPR response [1]: 7 RU |
| YDYRYL | No binding was observed | – |
| YKYDYL | No binding was observed | – |

Reference: PMC7114193 (Antiviral Research, 2012)
